Measurements reported in patent US9161910B2, “Method and pharmaceutical compositions for trans-buccal mucosa treatment of postprandial hyperglycaemia in type II diabetes” (priority 2009, dated 2015).
Like-named read-outs stand apart in the source and are kept apart here.

How the values were obtained:
[1] = Complete dissolution in hydroalcoholic solution according to the invention; assay type: physicochemical; settings: approximately 50° hydroalcoholic solution
Source text: The term “dissolved in a stable and a complete manner” means a state of dissolution restoring the active principle to the molecular state, slightly ionized in its dissolving medium, the state of dissolution preventing any possibility of inopportune recrystallization.

[2] = cited from earlier work; for solubility in alcohol: alcohol / ethanol
obese, diabetic patients = settings: continuous perfusion, 6 weeks; cited from earlier work
[3] = oral; cited from earlier work
plasma carrier proteins = settings: cited from earlier work
[4] = cited from earlier work; for distribution volume: in vivo

## COc1ccc(Cl)cc1C(=O)NCCc1ccc(S(=O)(=O)NC(=O)NC2CCCCC2)cc1 [glibenclamide]
[1]
  complete dissolution, amount: 1 mg per 1 mL
[2]
  solubility in alcohol: slightly soluble in ethanol
  solubility in water: practically insoluble in water

## glucagon-like peptide-1 [GLP-1]
obese, diabetic patients
  reduction in postprandial glycemia: 5.5 mM
  reduction of hemoglobin HbAlC: 1.3%

## CCOc1cc(CC(=O)N[C@@H](CC(C)C)c2ccccc2N2CCCCC2)ccc1C(=O)O [Repaglinide, repaglinide]
[3]
  inter-individual variability in plasma concentration: 60%
  intra-individual variability in plasma concentration: 35%
  onset of insulinotropic response after taking: approximately 30 min

## CN(C)C(=N)N=C(N)N [Metformin, metformin]
Plasma carrier proteins
  binding to plasma proteins (in words): not bound to plasma proteins

## N[C@@H](CC(=O)N1CCn2c(nnc2C(F)(F)F)C1)Cc1cc(F)c(F)cc1F [Sitagliptin, sitagliptin]
[4]; oral
  bioavailability: ~87%
[4]; single dose of 100 mg intravenous
  mean distribution volume in the organism: approximately 198 L
Plasma carrier proteins
  binding to plasma proteins (in words): bound to plasma proteins
[2]
  solubility in organic solvents: soluble in water and certain organic solvents
  solubility in water: soluble in water

## Cc1ccc(S(=O)(=O)NC(=O)NN2CC3CCCC3C2)cc1 (stereo not drawn) [Gliclazide, gliclazide]
[4]
  distribution volume: approximately 30 L
[4]; listed as gliclazide
  distribution volume: 30 L
[4]; oral
  hepatic metabolism (in words): extensively metabolized by the first hepatic passage
Plasma carrier proteins
  binding to plasma carrier proteins: 95%
[1]
  complete dissolution, amount: 3.5 mg for 0.75 mL
[2]
  solubility in alcohol: slightly soluble in alcohol
  solubility in water: insoluble in water

## N#C[C@@H]1CCCN1C(=O)CNC12CC3CC(CC(O)(C3)C1)C2 [Vildagliptin, vildagliptin]
[4]; oral
  bioavailability: approximately 85%
[2]
  solubility in organic solvents: soluble in water and organic solvents
  solubility in water: soluble in water
